Measurements reported in patent publication US20230097753A1, “ALPHA-HYDROXYLATED FATTY-ACID METABOLITES, MEDICAL USES AND USE AS BIOMARKERS” (UNIVERSITAT DE LES ILLES BALEARS, priority 2020, published 2023).

Tests used:
[1] = tested on: 5xFAD mice; assay: Radial arm maze test in 5xFAD model of Alzheimer's disease; assay type: in vivo, mouse; details: 20 mg/kg/day, 3 to 7 months of age
Protocol: FIG. 6. A, B and C: Chronic treatment with HPA acid or its prodrug, DHA-H, prevents cognitive decline typical of Alzheimer's disease in the murine transgenic model (5xFAD). Cognitive assessment was performed by the 8-arm Radial Labyrinth test. The animals received treatment between 3 and 7 months of age and the test was performed during the last month of treatment. During this test, the total errors made during the test (A), the reference memory errors (RME) (B) and the working memory errors (WME) (C) were taken into account. Each column represents the mean±SEM of errors during the last week of the radial labyrinth test. The black columns represent the errors made by WT mice. The blank columns represent the errors made by the 5xFAD transgenic mice treated with the vehicle (5% ethanol). Striped columns represent errors made by 5xFAD mice treated with DHA-H (20 mg/kg/day). Boxed columns represent errors made by 5xFAD mice treated with HPA (20 mg/kg/day). […] The bars represent the mean±standard error for each treatment condition and the statistical analysis was performed by unidirectional ANOVA and the Tukey multiple evaluation test: *p<0.05 when compared to healthy control (WT) and #p<0.05 when compared to 5xFAD control condition (treated with the vehicle). […]

[2] = tested on: A549; assay: IC50 in tumor cell cultures (cell survival, XTT / trypan blue); assay type: cell-based; details: A549 human lung adenocarcinoma cell line
Protocol: (§1) Cell survival was analyzed in a Barker chamber using trypan blue vital exclusion staining (Scharlab) or by cell proliferation kit II (Roche). Briefly, the cells were seeded in 96-well plates at a density of 3 x 10^3 cells per well 24 h prior to treatment, and then cultured in the presence or absence of compounds of interest at the concentrations and for the times indicated in the figures. After different times, plaque viable cells were determined by the addition of XTT according to the manufacturers instructions. Cells were incubated at 37° C. in 5% CO2 until a constant color was developed and absorbance was recorded at 495 nm using a microplate reader with a reference wavelength of 650 nm (FLUOstar Omega, BMG LABTECH, Germany).
(§2) The anti-tumor activity of the different metabolites described in FIGS. 8 and 9 was determined by direct treatment with these molecules (HDA or C17:2 ω-6, HTA ω-3 or C17:3 ω-3, HTA ω-6 or C17:3 ω-6, NTA or C19:4 ω-6, NPA or C19:5 ω-3, and HPA or C21:5 ω-3) in tumor cell cultures, on which the IC50 value for each of these compounds was determined (Inhibitory Concentration 50: concentration of study compound that induces death of 50% of the tumor cell population).

[3] = tested on: MIA-PaCa 2; assay: as above; assay type: cell-based; details: Homo sapiens; MIA-PaCa 2 pancreatic cancer cell line
Protocol: as §1, §2

| Compound | Cognition in 8-arm radial labyrinth test (total errors, RME, WME) [1] | IC50 [2] [µM] | IC50 [3] [µM] |
| --- | --- | --- | --- |
| CCC=CCC=CCC=CCC=CCC=CCC=CCC(O)C(=O)O (stereo not shown) [DHA-H, 2-hydroxy-drocosahexaenoic acid] | cognitive improvement |  |  |
| CC/C=C\C/C=C\C/C=C\C/C=C\C/C=C\CCCCC(=O)O [HPA, (6Z,9Z,12Z,15Z,18Z)-heneicosa-6,9,12,15,18-pentaenoic acid] | cognitive improvement | 228 ± 3 | 58 ± 17 |
